# Reference: patent US20220389067A1, “Methods of Treating Neurodegenerative Diseases Caused by G4C2 Expansion in C9ORF72” (The Board of Trustees of the Leland Stanford Junior …, priority 2019, published 2022)
# What was measured:
# GR80 = assay: Effect of CAT-tailing inhibition on poly(GR) level; format: cell-based; settings: FIG. 82
# From the text: Ribosome-stalled NPC is modified by a non-templated, 40S-independent CAT-tailing process that depends on Tae2/Clbn/NEMF family proteins. CAT-tailed substrates escaping the quality control system can accumulate and form aggregates. […] Consistently, RNAi of a fly homolog of Vms1, a stress-responsive mitochondrial RQC factor that antagonizes CAT-tailing by cleaving peptidyl-tRNA bond, increased high MW GR80 signal and total GR80 abundance (FIG. 77), whereas overexpression of mammalian Vms1 (ANKZF1) had opposite effect (FIG. 78). In C9ALS fibroblasts, ANKZF1 RNAi increased, whereas NEMF RNAi decreased poly(GR) (FIG. 78). Thus steady-state poly(GR) level is positively correlated with a CAT-tailing-like process.
# The role of Ala- or Thr-tRNA synthetase (AARS or TARS) was examined. […] The specificity of the ARS effect was shown by the lack of effect of the other ARSs tested (FIG. 79). Thus AARS/TARS, and possibly select other ARSs (e.g., IARS), appear to be involved in GR80 CAT-tailing, and that CAT-tailing confers stabilization, aggregation, and toxicity. Further supporting this notion, poly(GR) containing an artificial CAT-tail (GR71-AT15) formed prominent aggregates on mitochondria on its own, and its level was not affected by NEMF RNAi or anisomycin treatment (FIG. 82).
# [1] = system: Flag-GR80 in HEK293T cells; assay: Flag-GR80 level in HEK293T cells (non-canonical Notch/AKT/VCP modulation); format: cell-based; settings: FIGS. 91-93
# patient fibroblasts = assay: poly(GR) level and mitochondrial morphology in patient fibroblasts (AKT/VCP modulation); format: cell-based, human
# [2] = system: C9ALS/FTD BAC transgenic mice (C9-500); assay: Rotarod assay in C9-500 BAC transgenic mice; format: in vivo, mouse; settings: C9-500 mice, i.p. 40 mg/kg/day, FIG. 95
# Protocol: (§1) Non-canonical Notch regulation of poly(GR) was then tested in mammalian cells. In HEK293T cells, overexpression of Notch (FIG. 91), or treatment of cells with the ATK activator SC79 (FIGS. 91 & 92) reduced Flag-GR80 level, whereas small molecule inhibitor of AKT (AKTi) or VCP (VCPi) increased Flag-GR80 level (FIG. 93). Similar to fly tissue, the Notch overexpression effect was blocked by VCPi (FIG. 91). […] On the other hand, AKTi or VCPi increased poly(GR) level (FIGS. 78 & 94). To further test the in vivo relevance, the C9ALS/FTD BAC transgenic mice (C9-500) were examined, which express a human C9orf72 gene with ˜500 G4C2 repeats. Treatment of C9-500 mice by i.p. injection of SC79 (40 mg/kg/day) improved motor behavior as detected with the rotarod assay (FIG. 95). This was correlated with rescue of muscle mitochondrial morphology (FIGS. 95 & 96) and reduction of poly(GR) (FIGS. 97 & 98) but not poly(GA) (FIGS. 98 & 99) levels in muscle tissue. […]
# Female C9-500 BAC transgenic mice were i.p. injected with sc79 (Selleckchem) at 40 mg/kg/day (n=10) or vehicle (DMSO [Sigma]: PEG300 [Spectrum]: 2-Hydroxypropyl-beta-cyclodextran (20%) [Sigma] at 1:3:1) (n=8) from 16 weeks of age and continued for 3 months. […] Once all the mice were “ready”, the start button was pushed and the test began. […] The fall-off times of each animal were recorded and used for statistical analysis.
# [3] = system: muscle tissue of C9-500 mice; assay: Muscle mitochondrial morphology and DPR levels in C9-500 mice; format: in vivo, mouse; settings: i.p. 40 mg/kg/day
# Protocol: as §1
# Female C9-500 BAC transgenic mice were i.p. injected with sc79 (Selleckchem) at 40 mg/kg/day (n=10) or vehicle (DMSO [Sigma]: PEG300 [Spectrum]: 2-Hydroxypropyl-beta-cyclodextran (20%) [Sigma] at 1:3:1) (n=8) from 16 weeks of age and continued for 3 months. […] Once all the mice were “ready”, the start button was pushed and the test began. […] The fall-off times of each animal were recorded and used for statistical analysis. […]
# [4] = system: fibroblasts from C9-ALS/FTD patients carrying C9ORF72 G4C2 repeat expansion; assay: Nigericin treatment of C9-ALS/FTD patient fibroblasts; format: cell-based, human
# Protocol: (§2) Finally, it was tested whether the pathogenic mechanisms uncovered in flies are relevant to GR toxicity in patient cells. In fibroblasts from C9-ALS/FTD patients carrying C9ORF72 G4C2 repeat expansion, GR was present in the mitochondrial fraction, as shown by dot blot (FIG. 46) and immunostaining (FIG. 46), although nuclear GR was also detected (FIG. 46). […] Thus, altered mitochondrial inner membrane structure and ion homeostasis are conserved features of C9-ALS. There were also GR interactions with Mic27/Apool in patient fibroblasts (FIG. 49). Nigericin treatment (FIGS. 50 & 51) or knockdown of key MICOS components (FIGS. 49 & 52) rescued the mitochondrial defects in patient fibroblasts. […] Nigericin treatment (FIG. 54) or knockdown of key MICOS components (FIG. 53) reduced the GR level in patient cells, but nigericin had no effect on the GA level (FIG. 53).
# [5] = system: HEK293 cells transfected with GR80; assay: mito-K+ in HEK293 cells transfected with GR80; format: cell-based; settings: HEK293 cells transfected with GR80, FIG. 53
# Protocol: as §2
# GR80 fly muscle = assay: Nigericin treatment of GR80 transgenic flies; format: in vivo, Drosophila
# From the text: To further test whether high MMP and altered ion homeostasis contribute to GR80 toxicity, GR80 flies we treated with nigericin, a K^+/H^+ antiporter that can re-balance mitochondrial matrix ion levels. […] Moreover, the aberrant interactions between MICOS subunits caused by GR80 (FIG. 42) and the elevated mito-K^+ in GR80 flies were rescued after nigericin treatment (FIGS. 41 & 42). Thus, by restoring mitochondrial ion homeostasis, nigericin may affect the MICOS structure and, in turn, GR80 stability, similar to the effects of the genetic manipulation of MICOS, although other mechanisms of nigericin action cannot be excluded.
# Newly hatched flies were collected and placed into vials with instant fly food (Carolina Biological Supply Company, USA) mixed with different doses ([…]) of Nigericin (Cayman Chemical, 11437) from the stock solution (50 mM dissolved in DMSO). The flies were fed for 7 days and changed with fresh vial every 24 hours. After treatments, fly thoracic samples were harvested and used for sample preparation.
smiles,measurement,setting,value
"COc1ccc(C[C@H]2NC[C@H](O)[C@H]2OC(C)=O)cc1 [Anisomycin, anisomycin]",level of poly(GR) containing an artificial CAT-tail (GR71-AT15),GR80,not affected
CCOC(=O)C1=C(N)Oc2ccc(Cl)cc2C1C(C#N)C(=O)OCC (centres unmarked) [SC79],Flag-GR80 level,[1],reduced
same,mitochondrial morphology,patient fibroblasts; FIG. 93,rescued
same,poly(GR) level,patient fibroblasts; FIGS. 78 & 94,significantly reduced
same,motor behavior as detected with the rotarod assay,[2],improved
same,muscle mitochondrial morphology,[3]; FIGS. 95 & 96,rescue
same,poly(GR) level in muscle tissue,[3]; FIGS. 97 & 98,reduction
CO[C@@H]1C[C@@H](C[C@H]2CC[C@H](C)[C@H]([C@@H](C)C(=O)O)O2)O[C@]2(O[C@](C)([C@H]3CC[C@@](C)([C@@H]4O[C@@H]([C@H]5O[C@@](O)(CO)[C@H](C)C[C@@H]5C)C[C@@H]4C)O3)C[C@H]2C)[C@@H]1C [nigericin],GR level in patient cells,"[4]; C9-ALS/FTD patient fibroblasts, FIG. 54",reduced
same,mitochondrial defects in patient fibroblasts,"[4]; C9-ALS/FTD patient fibroblasts, FIGS. 50 & 51",rescued
same,GA level,"[4]; patient cells, FIG. 53",no effect
same,GR-induced mito-K+ increase,[5],reduced
same,GR80 level in fly muscle,"GR80 fly muscle; GR80 flies, FIG. 44",significantly reduced
same,mitochondrial morphology,"GR80 fly muscle; GR80 flies, low concentrations of nigericin in food, FIG. 43",effectively restored
same,GR80 fly wing-posture defect,"GR80 fly muscle; GR80 flies, nigericin in food, FIG. 44",rescue
same,aberrant interactions between MICOS subunits caused by GR80,"GR80 fly muscle; after nigericin treatment, FIG. 42",rescued
same,elevated mito-K+ in GR80 flies,"GR80 fly muscle; after nigericin treatment, FIGS. 41 & 42",rescued
same,GA80 level,"GR80 fly muscle; flies, specificity control, FIG. 42",did not affect
